In publication PMC7031696 (Cell chemical biology, 2019):
Like-named read-outs stand apart in the source and are kept apart here.

What was measured:
[1] = system: 3D7-MR4 trophozoite parasite-infected RBCs; test: Metabolomic profiling (hydrophilic metabolite changes, UHPLC-MS); format: cell-based, Plasmodium falciparum
[2] = system: asynchronous 3D7-A10 parasite cultures; test: Standard 72-h exposure asexual blood stage susceptibility assay (IC50^72h); format: cell-based, Plasmodium falciparum; conditions: Plasmodium falciparum, 3D7, 72 h, read-out: Overall (72hr assay) Mean IC50 (IC50^72h)
[3] = system: 3D7-A10 or Dd2-B2 parasites; conditions: 3 × IC50^72h drug concentrations; ref Phillips et al., 2015; cited from earlier work
[4] = system: Plasmodium falciparum 3D7-A10 parasites; test: Stage specificity assay (8-h exposure of synchronized stages, IC50^8h); format: cell-based; conditions: for IC50: Plasmodium falciparum

## O=C1C(O)=C([C@H]2CC[C@H](c3ccc(Cl)cc3)CC2)C(=O)c2ccccc21 [Atovaquone, reference compound]
[1]
  Log2(fold change) Myristoyl/tetradecanoyl-CoA: -0.0411
  Log2(fold change) Octoluse 8/1P: 0.0910
  Log2(fold change) succinate/Methylmalonic acid: -0.8517
  Log2(fold change) succinyl-CoA/methylmalonyl-CoA: -0.2938
  Log2(fold change) threonine/homoserine: 0.0177
[1]; 10 × IC50^72h, 2.5 hr, trophozoites
  metabolic signature: increases in the pyrimidine precursors dihydroorotate and N-carbamoyl-L-aspartate (mETC disruption): observed
[1]; metabolite 3-phosphoglycerate, log2 fold change
  Log2(fold changes) 3-phosphoglycerate: -0.1329
[1]; metabolite 4-Pyridoxic acid, log2 fold change
  Log2(fold changes) 4-Pyridoxic acid: 0.0014
[1]; metabolite 4-aminobutyrate, log2 fold change
  Log2(fold changes) 4-aminobutyrate: 0.1923
[1]; metabolite 4-phosphopantetheine, log2 fold change
  Log2(fold changes) 4-phosphopantetheine: 0.0048
[1]; metabolite 4-phosphopantothenate, log2 fold change
  Log2(fold changes) 4-phosphopantothenate: -0.3512
[1]; metabolite 5-aminopentanoic acid, log2 fold change
  Log2(fold changes) 5-aminopentanoic acid: -0.0149
[1]; metabolite 5-methyl-THF, log2 fold change
  Log2(fold changes) 5-methyl-THF: -0.0146
[1]; metabolite 5-phosphoribosyl-1-pyrophosphate, log2 fold change
  Log2(fold changes) 5-phosphoribosyl-1-pyrophosphate: -0.1198
[1]; metabolite 6-phospho-D-gluconate, log2 fold change
  Log2(fold changes) 6-phospho-D-gluconate: 0.0051
[1]; metabolite HVDD
  Log2(fold change) HVDD: 0.0262
[1]; metabolite Hydroxyisocaproic acid
  Log2(fold change) Hydroxyisocaproic acid: -0.0150
[1]; metabolite IDP
  Log2(fold change) IDP: 0.0185
[1]; metabolite IMP
  Log2(fold change) IMP: 0.1599
[1]; metabolite Inositol
  Log2(fold change) Inositol: 0.0000
[1]; metabolite Isopentyl-PP
  Log2(fold change) Isopentyl-PP: -0.0191
[1]; metabolite L-arginino-succinate
  Log2(fold change) L-arginino-succinate: 0.1909
[1]; metabolite LD
  Log2(fold change) LD: 0.1960
[1]; metabolite N-Acetyl-L-alanine
  Log2(fold change) N-Acetyl-L-alanine: -0.3227
[1]; metabolite N-acetyl-L-ornithine
  Log2(fold change) N-acetyl-L-ornithine: 0.1921
[1]; metabolite N-acetyl-glucosamine-1/6-phosphate
  Log2(fold change) N-acetyl-glucosamine-1/6-phosphate: 0.3531
[1]; metabolite N-acetyl-glutamate
  Log2(fold change) N-acetyl-glutamate: 0.0422
[1]; metabolite N-acetyl-glutamine
  Log2(fold change) N-acetyl-glutamine: -0.1228
[1]; metabolite N-carbamoyl-L-aspartate
  Log2(fold change) N-carbamoyl-L-aspartate: 2.7565
[1]; metabolite NAD+
  Log2(fold change) NAD+: -0.0365
[1]; metabolite NADH
  Log2(fold change) NADH: -0.0409
[1]; metabolite NADP+
  Log2(fold change) NADP+: 0.1141
[1]; metabolite NADPH
  Log2(fold change) NADPH: -0.0085
[1]; metabolite O-acetyl-L-serine
  Log2(fold change) O-acetyl-L-serine: 0.0000
[1]; metabolite Octoluse Bisphosphate
  Log2(fold change) Octoluse Bisphosphate: -0.0867
[1]; metabolite PD
  Log2(fold change) PD: 0.2066
[1]; metabolite PE
  Log2(fold change) PE: 0.2833
[1]; metabolite PEE
  Log2(fold change) PEE: 0.1525
[1]; metabolite PEEK
  Log2(fold change) PEEK: 0.2544
[1]; metabolite PVNF
  Log2(fold change) PVNF: -0.1256
[1]; metabolite Pyroglutamic acid
  Log2(fold change) Pyroglutamic acid: -0.4514
[1]; metabolite Pyrophosphate
  Log2(fold change) Pyrophosphate: -0.0311
[1]; metabolite Ribose-5-phosphate
  Log2(fold change) Ribose-5-phosphate: -0.0776
[1]; metabolite S-adenosyl-L-homocysteine
  Log2(fold change) S-adenosyl-L-homocysteine: -0.0546
[1]; metabolite S-adenosyl-L-methioninamine
  Log2(fold change) S-adenosyl-L-methioninamine: 0.0342
[1]; metabolite S-adenosyl-L-methionine
  Log2(fold change) S-adenosyl-L-methionine: 0.0000
[1]; metabolite S-methyl-5'-thioadenosine
  Log2(fold change) S-methyl-5'-thioadenosine: 0.1207
[1]; metabolite SD
  Log2(fold change) SD: 0.1611
[1]; metabolite SDL
  Log2(fold change) SDL: 0.0455
[1]; metabolite SID
  Log2(fold change) SID: 0.0448
[1]; metabolite Sedoheptulose bisphosphate
  Log2(fold change) Sedoheptulose bisphosphate: -0.0991
[1]; metabolite Thiamine pyrophosphate
  Log2(fold change) Thiamine pyrophosphate: 0.0203
[1]; metabolite UDP-D-glucose, log2 fold change
  Log2(fold changes) UDP-D-glucose: 0.0102
[1]; metabolite UDP-D-glucuronate, log2 fold change
  Log2(fold changes) UDP-D-glucuronate: -0.0044
[1]; metabolite UDP-N-acetyl-glucosamine, log2 fold change
  Log2(fold changes) UDP-N-acetyl-glucosamine: -0.2854
[1]; metabolite UDP, log2 fold change
  Log2(fold changes) UDP: -1.0636
[1]; metabolite UMP, log2 fold change
  Log2(fold changes) UMP: -0.5975
[1]; metabolite UTP, log2 fold change
  Log2(fold changes) UTP: -1.2395
[1]; metabolite hydroxyphenylpyruvate
  Log2(fold change) hydroxyphenylpyruvate: 0.0147
[1]; metabolite hydroxyproline/Aminolevulinate
  Log2(fold change) hydroxyproline/Aminolevulinate: -0.0689
[1]; metabolite hypoxanthine
  Log2(fold change) hypoxanthine: -0.2575
[1]; metabolite indole
  Log2(fold change) indole: -0.1736
[1]; metabolite inosine
  Log2(fold change) inosine: -0.1123
[1]; metabolite isoleucine
  Log2(fold change) isoleucine: -0.2949
[1]; metabolite lactate
  Log2(fold change) lactate: -0.5142
[1]; metabolite leucine
  Log2(fold change) leucine: -0.2842
[1]; metabolite lysine
  Log2(fold change) lysine: 0.3188
[1]; metabolite malate
  Log2(fold change) malate: -0.2336
[1]; metabolite maleic acid
  Log2(fold change) maleic acid: -0.1204
[1]; metabolite methionine
  Log2(fold change) methionine: -0.2848
[1]; metabolite myo-inositol
  Log2(fold change) myo-inositol: -0.2098
[1]; metabolite nicotinamide mononucleotide
  Log2(fold change) nicotinamide mononucleotide: -0.0768
[1]; metabolite nicotinate
  Log2(fold change) nicotinate: -0.1572
[1]; metabolite ornithine
  Log2(fold change) ornithine: 0.0045
[1]; metabolite orotate
  Log2(fold change) orotate: 0.1233
[1]; metabolite orotidine-5'-phosphate
  Log2(fold change) orotidine-5'-phosphate: -0.3697
[1]; metabolite oxaloacetate
  Log2(fold change) oxaloacetate: -0.0126
[1]; metabolite p-aminobenzoate
  Log2(fold change) p-aminobenzoate: -0.0050
[1]; metabolite p-hydroxybenzoate
  Log2(fold change) p-hydroxybenzoate: 0.0562
[1]; metabolite pantothenate
  Log2(fold change) pantothenate: -0.2044
[1]; metabolite phenylalanine
  Log2(fold change) phenylalanine: -0.3684
[1]; metabolite phenylpyruvate
  Log2(fold change) phenylpyruvate: 0.0000
[1]; metabolite phosphoenolpyruvate
  Log2(fold change) phosphoenolpyruvate: -0.0614
[1]; metabolite prephenate
  Log2(fold change) prephenate: -0.0378
[1]; metabolite proline
  Log2(fold change) proline: -0.1933
[1]; metabolite pyridoxine
  Log2(fold change) pyridoxine: -0.3758
[1]; metabolite pyruvate
  Log2(fold change) pyruvate: -0.8812
[1]; metabolite riboflavin
  Log2(fold change) riboflavin: -0.0986
[1]; metabolite ribose
  Log2(fold change) ribose: -0.0745
[1]; metabolite ribose-phosphate
  Log2(fold change) ribose-phosphate: -0.1162
[1]; metabolite ribulose-5-phosphate
  Log2(fold change) ribulose-5-phosphate: -0.1031
[1]; metabolite serine
  Log2(fold change) serine: 0.0478
[1]; metabolite sn-glycerol-3-phosphate
  Log2(fold change) sn-glycerol-3-phosphate: 0.1848
[1]; metabolite taurine
  Log2(fold change) taurine: 0.0315
[1]; metabolite thiamine
  Log2(fold change) thiamine: -0.0450
[1]; metabolite thymidine
  Log2(fold change) thymidine: -0.1873
[1]; metabolite thymine, log2 fold change
  Log2(fold changes) thymine: 0.0000
[1]; metabolite trehalose-6-Phosphate, log2 fold change
  Log2(fold changes) trehalose-6-Phosphate: 0.0905
[1]; metabolite tryptophan, log2 fold change
  Log2(fold changes) tryptophan: -0.2480
[1]; metabolite tyrosine, log2 fold change
  Log2(fold changes) tyrosine: -0.2052
[1]; metabolite uridine, log2 fold change
  Log2(fold changes) uridine: -0.2906
[2]
  IC50: 1.1 nM
[3]
  minimum inoculum for resistance: 2 × 10^7 parasites
[4]; 8-h exposures
  overall activity profile (stages on which active): activity against late trophozoites only
[4]; 8-h exposures, survival curves
  killing in stage specificity assay: incomplete killing
[4]; 3D7, read-out: Early rings Mean IC50, shift 2
  IC50: 553 nM
[4]; 3D7, read-out: Early trophozoites Mean IC50, shift 1
  IC50: 0.68 nM
[4]; 3D7, read-out: Early trophozoites Mean IC50, shift 2
  IC50: 619 nM
[4]; 3D7, read-out: Late rings Mean IC50, shift 2
  IC50: 324 nM
[4]; 3D7, read-out: Late trophozoites Mean IC50, shift 1
  IC50: 3.7 nM
[4]; 3D7, read-out: Schizonts IC50, shift 2
  IC50: > 25000 nM
[4]; 3D7, read-out: Schizonts Mean IC50, shift 1
  IC50: 7.4 nM
[4]; early trophozoite and schizont stages
  shape of survival curve: biphasic survival curve
[4]; period when the parasite was most susceptible (lowest IC50^8h)
  Stage of peak activity (Figure 6): late trophozoite stages
[4]; stage(s) with the lowest IC50^8h
  Peak Activity (Table S1): Late Trophs
